Test results as given in US9771430B2, “Method of treating a metabolic disorder induced by obesity in a subject in need thereof by administering MK2/3 inhibitors” (THE TRUSTEES OF COLUMBIA UNIVERSITY IN THE CITY OF NEW YORK, priority 2011, dated 2017).

Key:
[1] = tested on: calcineurin; assay: Calcineurin activity in primary hepatocytes; assay type: cell-based, mouse
Procedure: (§1) HEK293T (ATCC) cells were cultured in DMEM containing 10% FBS (HyClone), […] penicillin-streptomycin. Mouse primary hepatocytes were isolated and cultured as previously described (18). Cellular fractionation studies were conducted as previously reported (18). For reporter studies, Ad-CRE-luc infected hepatocytes (1 pfu per cell) were exposed to glucagon (Gcg, 100 nM) for 2˜4 h. For cyclosporine A (CsA, 10 μM) or okadaic acid (OA, 100 nM) or cell permeable calcineurin autoinhibitory peptide (10 μM) or CN585 (100 μM) or Calyculin A (10 nM) or Xestospongin C (Xc, 2 μM) or H89 (30 μM) or BAPTA (50 μM) inhibition, hepatocytes were pre-treated with the inhibitors for one hour. Luciferase activities were normalized to β-galactosidase activity from adenoviral-encoded RSV β-gal. Calcineurin activity (test kit from Enzo Life Sciences) and cellular cAMP levels (test kit from Cayman Chemical Company) were measured according to manufacturer's instructions.

[2] = tested on: CRE-luciferase (luc) reporter; assay: CRE-luciferase reporter activity in primary hepatocytes; assay type: cell-based, mouse; conditions: response to glucagon
Procedure: as §1

[3] = tested on: IP3R; assay: IICR in freshly isolated peritoneal cavity macrophages of Xestospongin C-treated ob/ob mice; assay type: in vivo, mouse; conditions: treatment of ob/ob mice
Text: FIGS. 50A-M. The role of IP3R in obesity/insulin resistance induced hyperglycemia and gluconeogenesis. FIG. 50A. Evidence that Xestospongin C Treatment of ob/ob Mice Inhibits IP3R Assay of IICR in Freshly Isolated Peritoneal Cavity Macrophages. FIG. 50B-E. Inhibition of IP3R Reduces Fasting Blood Glucose Levels in ob/ob Mice. FIG. 50F. Inhibition of IP3R Reduces Hepatic Expression of PEPCK, G6Pase, and PGC1α in ob/ob. FIG. 50G-I. Inhibition of IP3R Reduces Expression of PEPCK, G6Pase, and PGC1α in Palmitate-Treated Hepatocytes as a Model of ER Stress and Insulin Resistance. FIG. 50J-K. Inhibition of IP3R Reduces Expression of G6Pase and PEPCK in Akt-Inhibited Hepatocytes as a Model of Insulin Resistance. FIG. 50L. IP3R Activity is Required for Forskolin-Induced TORC2 Dephosphorylation. FIG. 50M. IP3R Activation is Required for TORC2 Nuclear Retention.

Compound: C1CCC[C@H]2CCCN3CC[C@@H](CCCCCC[C@@H]4CCCN5CC[C@@H](CC1)O[C@@H]45)O[C@@H]23 [Xestospongin C]
- calcineurin activation in response to glucagon and forskolin [1]: disrupted
- CRE-luciferase (luc) reporter activity / activation [2]: blocked
- IP3R (IICR) in peritoneal cavity macrophages [3]: Inhibits
